Biological target: T1, mouse Nurr1 full-length (Mus musculus, UniProt Q06219)
T1 construct: pcDNA3.1 Myc/His mouse Nurr1 full-length construct; expressed in transfected cells; host or cells: SK-N-BE2C
Experiment: Luciferase reporter gene assay for Nurr1 transcriptional activity in SK-N-BE2C cells
Assay type: cell-based
Conditions: relative activity over control (luminescence value; 1.0)
Experimental: To investigate whether the PG analogs of the present invention activate Nurr1 function, the inventors of the present invention employed an reporter gene assay and examined the transcriptional activation as described in Kim, C.-H. et al., Proceedings of the National Academy of Sciences 112, 8756-8761, doi:10.1073/pnas.1509742112 (2015).
The gene assay was performed by Luciferase assay as described below:
[Protocol for Luciferase Assay to Determine Nurr1 Transcriptional Activity] • 1. SK-N-BE2C cells were maintained in HyClone™ DMEM High Glucose (Cat. No.: SH30022.01) with 10% (v/v) fetal bovine serum (FBS), 100 units/ml penicillin and 100 μg/ml streptomycin. • 2. Seed 1.5×10^5 SK-N-BE2C cells/well into a 24-well plate and incubate at 37° C. with 5% CO2 for 24 hours. • 3. After 24 hours, transfect cells with pcDNA3.1 Myc/His mouse Nurr1 full-length construct, firefly luciferase reporter vector (pGL-3 basic from Promega, Cat. No.:E1751; with appropriate response element cloned in) and Renilla luciferase control vector (pRL-null from Promega, Cat. No.:E2271) in the ratio of 8:1:1 (Nurr1: firefly: renilla) or 400 ng, 50 ng and 50 ng respectively, amounting to a total of 500 ng in the 50 μl transfection mix for 1 well. • 4. To make the transfection mix, first prepare the DNA with P3000 reagent by adding the appropriate amount of DNA with 1 μl P3000 reagent and top up with Opti-MEM® I Reduced-Serum Media (from ThermoFisher Scientific [Cat. No.: 31985070]) to 25 μl. Incubate for 5 minutes at room temperature. • 5. Make another mix consisting of 1 μl Lipofectamine 3000 reagent with 24 μl Opti-MEM® I Reduced-Serum Media per well. Add this Lipofectamine mix to the previous DNA-P3000 mix (after the previous 5 minute incubation) and incubate them for 15 minutes at room temperature. [P3000:Lipofectamine=1:1]. • 6. In the meantime, change the media in the sample wells with fresh DMEM media without antibiotics. • 7. After 15 minutes incubation, add the 50 μl transfection mix into each well and incubate the plate for 24 hours at 37° C. with 5% CO2. • 8. After 24 hours, change the media to normal DMEM media with antibiotics and add various doses of compounds into designated wells and incubate the plate for another 24 hours at 37° C. with 5% CO2. • 9. Following the 24-hour incubation period, luciferase assay can be conducted using Dual-Glo Luciferase® kit from Promega (Cat. No.: E2920). • 10. Lyse each tested wells for 15 minutes with 75 μl of passive lysis buffer provided in the Dual-Luciferase® kit from Promega (Cat. No.: E1910). [Alternatively, add 75 μl of PBS and 75 μl of Dual-Glo® Luciferase Reagent and incubate for 10 minutes at room temperature (cover the plate with foil to protect from light). Transfer the entire sample in each well to a Greiner CELLSTAR® 96-well white polystyrene plate then proceed to step 13]. • 11. After 15 minutes, transfer each lysed sample to a Greiner CELLSTAR® 96-well white polystyrene plate (Cat. No.:655083). • 12. To each well of lysed cells, add 75 μl of Dual-Glo® Luciferase Reagent and incubate for 10 minutes at room temperature (cover the plate with foil to protect from light). • 13. Set the measurement with a 10-second integrated measurement period. • 14. Add 75 μl of Dual-Glo® Stop & Glo® reagent into each well and incubate for 10 minutes before commencing with the same parameters as before to determine the RLU for the Renilla luciferase. • 15. The averaged reading for wells corresponding to non-transfected cells can be subtracted from each RLU reading and duplicate/triplicate readings can then be averaged. Normalization of the luminescence reading for each well can be carried out by dividing the firefly luciferase RLU with the corresponding Renilla luciferase RLU. Each drug-treated well can then be normalized against the averaged DMSO-treated well reading.

T1 sequence (Q06219 whole entry): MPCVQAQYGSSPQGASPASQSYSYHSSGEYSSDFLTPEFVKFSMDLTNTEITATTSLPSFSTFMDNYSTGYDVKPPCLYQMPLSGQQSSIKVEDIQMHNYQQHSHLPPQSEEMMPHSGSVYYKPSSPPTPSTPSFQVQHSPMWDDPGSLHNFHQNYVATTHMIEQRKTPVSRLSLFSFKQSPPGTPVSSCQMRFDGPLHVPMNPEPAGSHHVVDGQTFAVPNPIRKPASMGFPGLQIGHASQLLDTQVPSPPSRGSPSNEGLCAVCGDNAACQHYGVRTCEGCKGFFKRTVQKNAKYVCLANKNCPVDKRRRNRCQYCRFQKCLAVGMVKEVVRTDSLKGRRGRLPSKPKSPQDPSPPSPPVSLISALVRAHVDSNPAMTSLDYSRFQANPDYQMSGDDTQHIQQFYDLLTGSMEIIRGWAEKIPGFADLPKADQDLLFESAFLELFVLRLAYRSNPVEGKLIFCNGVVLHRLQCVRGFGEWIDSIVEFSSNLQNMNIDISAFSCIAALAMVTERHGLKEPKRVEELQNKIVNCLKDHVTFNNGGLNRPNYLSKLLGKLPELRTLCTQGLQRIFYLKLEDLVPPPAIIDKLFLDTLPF

Row | SMILES | Fold activity (1 uM)
1 | CCCCC[C@](C)(O)/C=C/[C@H]1[C@H](O)CC(=O)[C@@H]1C/C=C\CCCC(=O)O [Compound 61, 15(S)-15-methyl Prostaglandin E2] | A (above 2.0 (high activity))
2 | CCCCCCC[C@H](O)/C=C/[C@H]1[C@H](O)CC(=O)[C@@H]1C/C=C\CCCC(=O)O [Compound 62, 20-ethyl Prostaglandin E2] | A (above 2.0 (high activity))
3 | CCCC[C@H](C)C[C@H](O)/C=C/[C@H]1[C@H](O)CC(=O)[C@@H]1CCCCC(CC(=O)O)OC (stereo partly shown) [Compound 63, 3-methoxy Limaprost] | B (1.1~2.0 (moderate))
4 | CCCCC[C@H](O)/C=C/[C@H]1C(=O)C[C@H](O)[C@@H]1C/C=C\CCCC(=O)O [Compound 64, Prostaglandin D2] | B (1.1~2.0 (moderate))
5 | O=C(O)CCC/C=C\CC1C(O)CC(=O)C1/C=C/C(O)CCc1ccccc1 (stereo not shown) [Compound 65, 17-phenyl trinor Prostaglandin D2] | C (below 1.0 (low activity))
6 | CCCCC[C@@H](O)CC[C@H]1[C@H](O)CC(=O)[C@@H]1CCCCCCC(=O)O [Compound 66, 13,14-dihydro-15(R)-Prostaglandin E1] | B (1.1~2.0 (moderate))
7 | CCCC[C@H](C)C[C@H](O)/C=C/[C@H]1[C@H](O)CC(=O)[C@@H]1CCCC/C=C/C(=O)O [Compound 67, Limaprost] | A (above 2.0 (high activity))
8 | CCCCC[C@H](O)/C=C/[C@H]1[C@H](O)CC(=O)[C@H]1C/C=C\CCCC(=O)O [Compound 68, 8-iso Prostaglandin E2] | A (above 2.0 (high activity))
9 | CCCCC(C)(C)[C@H](O)/C=C/[C@H]1[C@H](O)CC(=O)[C@@H]1C/C=C\CCCC(=O)O [Compound 69, 16,16-dimethyl Prostaglandin E2] | A (above 2.0 (high activity))
10 | CC/C=C\C[C@H](O)/C=C/[C@H]1[C@H](O)CC(=O)[C@@H]1C/C=C\CCCC(=O)O [Compound 70, Prostaglandin E3] | A (above 2.0 (high activity))
11 | O=C(O)CCC/C=C\CC1C(=O)CC(O)C1/C=C/C(O)CC1CCCCC1 (stereo not shown) [Compound 71, 8-iso-16-cyclohexyl-tetranor Prostaglandin E2] | B (1.1~2.0 (moderate))
12 | CCCCC[C@H](O)/C=C/[C@H]1C(=O)C[C@H](O)[C@@H]1C/C=C\CCCC(=O)NCCO [Compound 72, Prostaglandin D2 Ethanolamide] | C (below 1.0 (low activity))
13 | CCCCC[C@H](O)/C=C/[C@H]1[C@H](O)CC(=O)[C@@H]1CCCCCCC(=O)O [Compound 73, Prostaglandin E1] | A (above 2.0 (high activity))
14 | CCCCCC(=O)CCC1C(O)CC(=O)C1CCCCCCC(=O)O (stereo not shown) [Compound 74, 13,14-dihydro-15-keto Prostaglandin E1] | B (1.1~2.0 (moderate))
15 | CCCCC(C)(O)C/C=C/[C@H]1[C@H](O)CC(=O)[C@@H]1CCCCCCC(=O)OC (stereo partly shown) [Compound 75, Misoprostol] | A (above 2.0 (high activity))
16 | CCCCC[C@H](O)/C=C/[C@H]1[C@H](O)CC(=O)[C@H]1C/C=C\CCCC(=O)OC(C)C [Compound 76, 8-iso Prostaglandin E2 isopropyl ester] | A (above 2.0 (high activity))
17 | CCCCC(C)(C)[C@H](O)/C=C/[C@H]1[C@H](O)CC(=O)[C@@H]1C/C=C\CCCC(=O)Oc1ccc(NC(=O)c2ccc(NC(C)=O)cc2)cc1 [Compound 77, 16,16-dimethyl Prostaglandin E2 p-(p-acetamidobenzamido) phenyl ester] | A (above 2.0 (high activity))
18 | CCCCCC(=O)CCC1C(=O)CC(O)C1CCCCCCC(=O)O (stereo not shown) [Compound 79, 13,14-dihydro-15-keto Prostaglandin D1] | C (below 1.0 (low activity))
19 | CNC(=O)CCC/C=C\C[C@@H]1[C@@H](/C=C/[C@@H](O)CCc2ccccc2)[C@H](O)C[C@@H]1O [Compound 80, 17-phenyl trinor PGF2a methyl amide] | C (below 1.0 (low activity))

— US20210139435A1, “PROSTAGLANDIN ANALOGS AND USES THEREOF” (Lifex Biolabs, Inc., priority 2019, published 2021)
